In brackets after ≈: the same amount, converted by molar mass. Where only a bound is given, the exact number is not on record here.

This is an account of results in patent US5143911A, “Antibiotic C-3 di-hydroxyphenyl substituted cephalosporin compounds, compositions and method of use thereof” (Bristol-Myers Squibb Company, priority 1990, dated 1992).

One assay deals with PCresistant S. aureus. Briefly: MIC, two-fold serial agar dilution, Mueller-Hinton agar (geometric mean, group Gp-Ib). In kind it is cell-based. The conditions noted are these: Staphylococcus aureus, penicillin-resistant S. aureus, 5 strains. On the procedure:
(§1) For a primary evaluation of some representative compounds of this invention, minimum inhibitory concentrations (MIC's) were determined against 32 strains of test organisms by two-fold serial agar dilution method in Mueller-Hinton agar.
GpIb: PCresistant S. aureus

Assay [1] concerns CETresistant E. coli(3), and Kl. pneumoniae(2). Briefly: MIC, two-fold serial agar dilution, Mueller-Hinton agar (geometric mean, group Gn-Ib). In kind it is cell-based. The following applies: Escherichia coli, read-out: Geometric Mean of MIC, Gn-Ib. On the procedure:
as §1
GnIb: CETresistant E. coli(3), and Kl. pneumoniae(2)

In assay [2] the test system is M. morganii(1), Ent. cloacae(2), and Ser. marcescens(2). Briefly: MIC, two-fold serial agar dilution, Mueller-Hinton agar (geometric mean, group Gn-II). In kind it is cell-based. The conditions noted are these: 5 strains. On the procedure:
as §1
GnII: M. morganii(1), Ent. cloacae(2), and Ser. marcescens(2)

The next assay relates to P. cepacia A21213. In kind it is cell-based. The conditions noted are these: Burkholderia cepacia, pH 7.2, 32° C. 18 hr, 10^6 cells/ml.
The next assay has as its system B. fragilis A 21916. As to the kind of experiment: In vitro activity against anaerobes (MIC), two-fold serial agar dilution, GAM agar. The class given is cell-based. The following applies: Bacteroides fragilis, A21916, Gn, Beta-Lactamase(-).
Assay [3] relates to S. aureus Smith. As to the kind of experiment: MIC against the infecting organism (Table 2). The conditions noted are these: Staphylococcus aureus.
In another assay the test system is S. aureus 4-1015 (MRSA). The following applies: Staphylococcus aureus, 18 h, pH 7.2.
Another assay relates to S. epidermidis 11-1230. The following applies: Staphylococcus epidermidis, 111230, 18 h, pH 7.2.
Another assay deals with M. luteus 1001. The following applies: Micrococcus luteus, 1001, 18 h, pH 7.2.
Another assay has as its system E. coli Juhl A15119. The conditions noted are these: Escherichia coli, JUHLA15119, 18 h, pH 7.2.
For a further assay, the system named is K. pneumoniae PCI 602. The conditions noted are these: Klebsiella pneumoniae, PCI602, 18 h, pH 7.2.
A further assay has as its system P. mirabilis IFO-2849. The following applies: Proteus mirabilis, IFO2849, 18 h, pH 7.2.
The next assay has as its system M. morgani 1510/9. The following applies: 18 h, pH 7.2.
In another assay the test system is P. rettgeri IPM-14. The conditions noted are these: Providencia rettgeri, IPM14, 18 h, pH 7.2.
The test system of another assay is P. aeruginosa IPM-8. The conditions noted are these: Pseudomonas aeruginosa, IPM8, 18 h, pH 7.2.
For the next assay, the system named is X. maltophilia GN 12873. The conditions noted are these: Stenotrophomonas maltophilia, GN12873, 18 h, pH 7.2.
The test system of another assay is X. maltophilia No. 661. The following applies: Stenotrophomonas maltophilia, NO.661, 18 h, pH 7.2.
A further assay concerns C. terrigena IFO 12685. The conditions noted are these: 18 h, pH 7.2.
The subject of assay [4] is S. aureus Smith. The conditions noted are these: Staphylococcus aureus, in Mus musculus, im, read-out: PD50.
The test system of another assay is E. coli Juhl. The following applies: Escherichia coli, in Mus musculus, im, read-out: PD50.

In the case of `CO/N=C(\C(=O)NC1C(=O)N2C(C(=O)O)=C(/C=C/COC(=O)c3ccc(O)c(O)c3)CS[C@H]12)c1csc(N)n1` (some centres unmarked) [Ia, 7-[(Z)-2-(2-Aminothiazol-4-yl)-2-methoxyiminoacetamido]-3-[(E)-3-(3,4-dihydroxybenzoyloxy)-1-propen-1-yl]-3-cephem-4-carboxylic acid], the minimal inhibitory concentration (MIC) with PCresistant S. aureus was 1.6 µg/mL (≈ 2.78 µM); in assay [1], 0.029 µg/mL (≈ 0.0504 µM); in assay [2], 0.46 µg/mL (≈ 0.799 µM); in the assay on P. cepacia A21213, above 100 µg/mL; against B. fragilis A 21916, 1.6 µg/mL (≈ 2.78 µM); with S. aureus Smith [3], 1.6 µg/mL (≈ 2.78 µM). Further, the minimal inhibitory concentration (MIC) is 12.5 µg/mL (≈ 21.7 µM) in the assay with S. aureus 4-1015 (MRSA); 3.1 µg/mL (≈ 5.39 µM) with S. epidermidis 11-1230; 0.1 µg/mL (≈ 0.174 µM) against M. luteus 1001; 0.05 µg/mL (≈ 0.0869 µM) against E. coli Juhl A15119; below 0.0063 µg/mL against K. pneumoniae PCI 602; 0.05 µg/mL (≈ 0.0869 µM) against P. mirabilis IFO-2849. The minimal inhibitory concentration (MIC) in the assay with M. morgani 1510/9 was 0.05 µg/mL (≈ 0.0869 µM); with P. rettgeri IPM-14, 0.05 µg/mL (≈ 0.0869 µM); in the assay on P. aeruginosa IPM-8, 6.3 µg/mL (≈ 10.9 µM); against X. maltophilia GN 12873 it was 50 µg/mL (≈ 86.9 µM); against X. maltophilia No. 661, 12.5 µg/mL (≈ 21.7 µM); against C. terrigena IFO 12685 it was 0.8 µg/mL (≈ 1.39 µM). The ED50 is 0.4 mg/kg in the assay on S. aureus Smith [4] and 0.05 mg/kg with E. coli Juhl.
